≈ marks a conversion by molar mass, not a printed value.
How the values were obtained:
Staphylococcus aureus [1] = assay: Antimicrobial activity against Staphylococcus aureus in orally dosed mouse bacteremia survival model; format: functional; conditions: po
Staphylococcus aureus [2] = assay: Antimicrobial activity against Staphylococcus aureus in iv dosed mouse bacteremia survival model; format: functional
Staphylococcus aureus [3] = assay: Antimicrobial activity against quinolone-resistant Staphylococcus aureus MS5935 by micro broth dilution or agar based method; format: functional
Staphylococcus aureus [4] = assay: Antimicrobial activity against quinolone-sensitive Staphylococcus aureus MS5935 by micro broth dilution or agar based method
Staphylococcus aureus [5] = assay: Potency index, ratio of MIC for quinolone-resistant Staphylococcus aureus MS5935 to MIC for quinolone-[…]; format: functional
Staphylococcus aureus [6] = assay: Antimicrobial activity against methicillin-resistant Staphylococcus aureus OIT971 by micro broth dilution or agar based method; format: functional
Escherichia coli = assay: Antimicrobial activity against Escherichia coli ATCC 25922 by micro broth dilution or agar based method; format: functional; conditions: Escherichia coli, ATCC 25922; read-out: MIC
Staphylococcus aureus [7] = assay: Antimicrobial activity against Staphylococcus aureus Smith by micro broth dilution or agar based method; format: functional; conditions: Staphylococcus aureus, Smith; read-out: MIC
[8] = biological target: Voltage-gated inwardly rectifying potassium channel KCNH2 (Homo sapiens, UniProt Q12809); assay: Inhibition of MK499 binding to human ERG
Enterococcus faecium = assay: Antimicrobial activity against VanA expressing vancomycin-resistant Enterococcus faecium by micro broth dilution or agar based method; format: functional; conditions: Enterococcus faecium; read-out: MIC
Acinetobacter baumannii = assay: Antimicrobial activity against Acinetobacter baumannii IID876 by micro broth dilution or agar based method; format: functional; conditions: Acinetobacter baumannii, IID876; read-out: MIC
Streptococcus pneumoniae = assay: Antimicrobial activity against Streptococcus pneumoniae IID553 by micro broth dilution or agar based method; format: functional; conditions: Streptococcus pneumoniae, IID553; read-out: MIC
Pseudomonas aeruginosa = assay: Antimicrobial activity against Pseudomonas aeruginosa PAO1 by micro broth dilution or agar based method; format: functional; conditions: Pseudomonas aeruginosa, PAO1; read-out: MIC
[9] = Oral bioavailability in C57BL/6 mouse at 10 mg/kg; format: ADME, organism-based; conditions: in vivo
Mus musculus = assay: Dose normalized AUC in C57BL/6 mouse at 1 mg/kg, iv; format: ADME, organism-based; parameters: dose 1 mg/kg, route intravenous; conditions: in vivo
[10] = Half life in C57BL/6 mouse at 1 mg/kg, iv or 10 mg/kg, po; format: ADME, organism-based; conditions: in vivo
[11] = Volume of distribution at steady state in C57BL/6 mouse at 1 mg/kg, iv or 10 mg/kg, po; format: ADME, organism-based; conditions: in vivo, read-out: Vdss
[12] = Plasma clearance in C57BL/6 mouse at 1 mg/kg, iv or 10 mg/kg, po; format: ADME, organism-based

Voltage-gated inwardly rectifying potassium channel KCNH2, sequence (Q12809 whole entry): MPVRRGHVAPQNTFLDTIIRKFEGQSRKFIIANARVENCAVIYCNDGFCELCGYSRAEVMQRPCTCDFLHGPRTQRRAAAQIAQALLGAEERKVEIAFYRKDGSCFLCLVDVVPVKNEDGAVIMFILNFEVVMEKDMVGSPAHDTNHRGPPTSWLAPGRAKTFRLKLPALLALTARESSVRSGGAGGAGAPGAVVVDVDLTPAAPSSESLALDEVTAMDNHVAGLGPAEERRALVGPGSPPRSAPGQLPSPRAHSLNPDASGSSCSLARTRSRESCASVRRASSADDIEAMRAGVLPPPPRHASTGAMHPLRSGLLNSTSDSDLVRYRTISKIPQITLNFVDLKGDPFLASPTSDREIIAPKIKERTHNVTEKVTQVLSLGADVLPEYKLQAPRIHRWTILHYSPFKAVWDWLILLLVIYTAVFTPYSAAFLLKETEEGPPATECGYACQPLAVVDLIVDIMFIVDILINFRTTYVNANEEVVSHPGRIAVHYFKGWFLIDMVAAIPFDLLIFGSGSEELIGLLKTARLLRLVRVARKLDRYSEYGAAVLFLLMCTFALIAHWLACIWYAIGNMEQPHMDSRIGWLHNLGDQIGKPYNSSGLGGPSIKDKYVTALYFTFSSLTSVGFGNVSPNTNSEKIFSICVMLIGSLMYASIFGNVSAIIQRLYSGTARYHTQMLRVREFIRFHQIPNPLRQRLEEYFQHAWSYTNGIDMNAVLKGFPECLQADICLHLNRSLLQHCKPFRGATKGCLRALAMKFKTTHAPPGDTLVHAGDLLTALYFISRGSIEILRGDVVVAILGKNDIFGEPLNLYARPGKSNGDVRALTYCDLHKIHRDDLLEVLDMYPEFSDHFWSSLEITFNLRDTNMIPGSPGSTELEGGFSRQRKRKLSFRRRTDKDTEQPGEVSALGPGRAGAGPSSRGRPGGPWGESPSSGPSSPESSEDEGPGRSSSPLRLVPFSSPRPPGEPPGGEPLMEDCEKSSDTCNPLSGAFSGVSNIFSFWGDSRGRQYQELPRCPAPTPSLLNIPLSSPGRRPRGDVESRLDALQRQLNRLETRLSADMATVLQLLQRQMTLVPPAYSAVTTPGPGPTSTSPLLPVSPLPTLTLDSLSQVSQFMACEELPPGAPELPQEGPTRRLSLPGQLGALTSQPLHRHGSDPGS

| SMILES | ED50 (Staphylococcus aureus [1]) [mg/kg] | ED50 (Staphylococcus aureus [2]) [mg/kg] | MIC (Staphylococcus aureus [3]) [µg/mL] | MIC (Staphylococcus aureus [4]) [µg/mL] | Ratio (Staphylococcus aureus [5]) | MIC (Staphylococcus aureus [6]) [µg/mL] | MIC (Escherichia coli) [µg/mL] | MIC (Staphylococcus aureus [7]) [µg/mL] | IC50 [8] [µM] | MIC (Enterococcus faecium) [µg/mL] | MIC (Acinetobacter baumannii) [µg/mL] | MIC (Streptococcus pneumoniae) [µg/mL] | MIC (Pseudomonas aeruginosa) [µg/mL] | bioavailability [9] [%] | AUC/dose (Mus musculus) [µM·h/mg/kg] | half-life [10] [h] | Vd [11] [L/kg] | clearance [12] [mL/min/kg] |
| --- | --- | --- | --- | --- | --- | --- | --- | --- | --- | --- | --- | --- | --- | --- | --- | --- | --- | --- |
| COc1ccc2ncc(C#N)c(CC(O)C34CCC(NCc5ccc6c(n5)NC(=O)CO6)(CC3)CO4)c2n1.Cl (configuration not stated) | 6.7 | 5.1 |  |  |  |  |  |  |  |  |  |  |  |  |  |  |  |  |
| C[C@H]1COc2c(N3CCN(C)CC3)c(F)cc3c(=O)c(C(=O)O)cn1c23.C[C@H]1COc2c(N3CCN(C)CC3)c(F)cc3c(=O)c(C(=O)O)cn1c23.O [LEVOFLOXACIN] |  |  | > 16 | 0.25 | >64 |  |  |  |  |  |  |  |  |  |  |  |  |  |
| COc1ccc2ncc(Cl)c(CCC34CCC(NCc5ccc6c(n5)NC(=O)CO6)(CC3)CO4)c2n1.Cl | > 50 | 17 |  |  |  |  |  |  |  |  |  |  |  |  |  |  |  |  |
| COc1ccc2ncc(C#N)c(CCC34CCC(NCc5ccc6c(n5)NC(=O)CO6)(CC3)CO4)c2n1.Cl | 9.6 | 8.6 |  |  |  |  |  |  |  |  |  |  |  |  |  |  |  |  |
| CCOc1cc(C)c2ncc(F)c(CCC34CCC(NCc5ccc6c(n5)NC(=O)CO6)(CC3)CO4)c2n1 |  |  |  |  | <4 | 0.031 (≈ 0.0594 µM) | 8 (≈ 15.3 µM) | 0.063 (≈ 0.121 µM) | 1.19 | 4 (≈ 7.67 µM) | 4 (≈ 7.67 µM) | 1 (≈ 1.92 µM) | 32 (≈ 61.4 µM) |  |  |  |  |  |
| Cc1cc(S(C)(=O)=O)nc2c(CCC34CCC(NCc5ccc6c(n5)NC(=O)CO6)(CC3)CO4)c(F)cnc12 |  |  |  |  | <4 | 0.125 (≈ 0.225 µM) | 8 (≈ 14.4 µM) | 0.125 (≈ 0.225 µM) | 12.4 | 4 (≈ 7.2 µM) | 2 (≈ 3.6 µM) | 4 (≈ 7.2 µM) | 32 (≈ 57.6 µM) |  |  |  |  |  |
| COc1ccc2ncc(F)c(CCC34CCC(NCc5ccc6c(n5)NC(=O)CO6)(CC3)CO4)c2n1 |  |  |  |  |  | 0.008 (≈ 0.0162 µM) | 1 (≈ 2.03 µM) | 0.016 (≈ 0.0324 µM) |  | 0.5 (≈ 1.01 µM) | 0.5 (≈ 1.01 µM) | 0.125 (≈ 0.253 µM) | 4 (≈ 8.1 µM) | 71 |  |  |  |  |
| COc1ccc2nc(N3CCNCC3)c(F)c(CCC34CCC(NCc5ccc6c(n5)NC(=O)CO6)(CC3)CO4)c2n1 |  |  |  |  | <4 | 8 (≈ 13.8 µM) | 8 (≈ 13.8 µM) | 8 (≈ 13.8 µM) |  | 8 (≈ 13.8 µM) | 8 (≈ 13.8 µM) | 8 (≈ 13.8 µM) | 8 (≈ 13.8 µM) |  |  |  |  |  |
| COc1ccc2nc(N3CCN(C)CC3)c(F)c(CCC34CCC(NCc5ccc6c(n5)NC(=O)CO6)(CC3)CO4)c2n1 |  |  |  |  | <4 | 16 (≈ 27 µM) | 32 (≈ 54.1 µM) | 32 (≈ 54.1 µM) |  | 32 (≈ 54.1 µM) | 32 (≈ 54.1 µM) | 32 (≈ 54.1 µM) | 32 (≈ 54.1 µM) |  |  |  |  |  |
| COc1ccc2nccc(CCC34CCC(NCc5ccc6c(n5)NC(=O)CO6)(CC3)CO4)c2n1 |  |  |  |  |  | 0.031 (≈ 0.0652 µM) | 2 (≈ 4.21 µM) | 0.031 (≈ 0.0652 µM) |  | 1 (≈ 2.1 µM) | 2 (≈ 4.21 µM) | 0.5 (≈ 1.05 µM) | 8 (≈ 16.8 µM) | 30.4 | 0.86 | 7.97 | 5.95 | 40.8 |
| CCOC(=O)c1c(OC)cnc2c(CCC34CCC(NCc5ccc6c(n5)NC(=O)CO6)(CC3)CO4)ccnc12 |  |  |  |  | <4 | 16 (≈ 29.2 µM) | 16 (≈ 29.2 µM) | 16 (≈ 29.2 µM) | 7.87 | 16 (≈ 29.2 µM) | 16 (≈ 29.2 µM) | 16 (≈ 29.2 µM) | 16 (≈ 29.2 µM) |  |  |  |  |  |
| O=C1COc2ccc(CNC34CCC(CCc5c(F)cnc6ccc(N7CCOCC7)nc56)(CC3)OC4)nc2N1 |  |  |  |  | <4 | 0.25 (≈ 0.456 µM) | 16 (≈ 29.2 µM) | 0.5 (≈ 0.911 µM) | 11.5 | 8 (≈ 14.6 µM) | 16 (≈ 29.2 µM) | 4 (≈ 7.29 µM) | 16 (≈ 29.2 µM) |  |  |  |  |  |
| Cl.N#Cc1ccc2ncc(F)c(CCC34CCC(NCc5ccc6c(n5)NC(=O)CO6)(CC3)CO4)c2n1 | 17 | 20 |  |  |  |  |  |  |  |  |  |  |  |  |  |  |  |  |
| Cc1ccc2ncc(F)c(CCC34CCC(NCc5ccc6c(n5)NC(=O)CO6)(CC3)CO4)c2n1 |  |  |  |  |  | 0.125 (≈ 0.262 µM) | 8 (≈ 16.8 µM) | 0.25 (≈ 0.524 µM) |  | 4 (≈ 8.38 µM) | 2 (≈ 4.19 µM) | 2 (≈ 4.19 µM) | 16 (≈ 33.5 µM) |  |  |  |  |  |
| O=C1COc2ccc(CNC34CCC(CCc5c(F)cnc6ccc(N7CCS(=O)(=O)CC7)nc56)(CC3)OC4)nc2N1 |  |  |  |  | <4 | 1 (≈ 1.68 µM) | 16 (≈ 26.8 µM) | 1 (≈ 1.68 µM) |  | 16 (≈ 26.8 µM) | 16 (≈ 26.8 µM) | 4 (≈ 6.7 µM) | 16 (≈ 26.8 µM) |  |  |  |  |  |
| Cc1cc(S(C)(=O)=O)nc2c(CCC34CCC(NCc5ccc6c(n5)NC(=O)CO6)(CC3)CO4)ccnc12 |  |  |  |  | <4 | 1 (≈ 1.86 µM) | 32 (≈ 59.5 µM) | 1 (≈ 1.86 µM) | 6.71 | 16 (≈ 29.8 µM) | 16 (≈ 29.8 µM) | 16 (≈ 29.8 µM) | 32 (≈ 59.5 µM) |  |  |  |  |  |
| COc1cc2ncc(F)c(CCC34CCC(NCc5ccc6c(n5)NC(=O)CO6)(CC3)CO4)c2nc1OC |  |  |  |  |  | 0.25 (≈ 0.477 µM) | 8 (≈ 15.3 µM) | 0.5 (≈ 0.955 µM) |  | 8 (≈ 15.3 µM) | 8 (≈ 15.3 µM) | 8 (≈ 15.3 µM) | 8 (≈ 15.3 µM) |  |  |  |  |  |
| CN(C)c1cnc2c(CCC34CCC(NCc5ccc6c(n5)NC(=O)CO6)(CC3)CO4)c(F)cnc2c1 |  |  |  |  | <4 | 16 (≈ 31.6 µM) | 16 (≈ 31.6 µM) | 16 (≈ 31.6 µM) | 18.4 | 16 (≈ 31.6 µM) | 16 (≈ 31.6 µM) | 16 (≈ 31.6 µM) | 16 (≈ 31.6 µM) |  |  |  |  |  |
| O=C1COc2ccc(CNC34CCC(CCc5c(F)cnc6cc(C(F)(F)F)cnc56)(CC3)OC4)nc2N1 |  |  |  |  |  | 16 (≈ 30.1 µM) | 16 (≈ 30.1 µM) | 16 (≈ 30.1 µM) |  | 16 (≈ 30.1 µM) | 16 (≈ 30.1 µM) | 16 (≈ 30.1 µM) | 16 (≈ 30.1 µM) |  |  |  |  |  |
| COc1ccc2nccc(CCC34CCC(NCc5ccc6c(n5)NC(=O)CO6)(CC3)CO4)c2n1.Cl | > 50 | 7.2 |  |  |  |  |  |  |  |  |  |  |  |  |  |  |  |  |
